Measured values: patent US9018395B2, “Pyrazolopyridine and pyrazolopyrimidine derivatives as melanocortin-4 receptor modulators” (Université de Montréal, priority 2011, dated 2015)

Molecular target: T1, wild-type human melanocortin 4 receptor (WT-hMC4R) (Homo sapiens, UniProt P32245)
T1 construct: expressed in transfected cells; cDNA from UMR cDNA resource center
Experiment: Cyclic AMP assay (HTRF), antagonist competition against NDP-α-MSH
Format: cell-based
Conditions: HEK293T cells expressing double-tagged WT-hMC4R; cAMP accumulation; 1 hour compound then 4 nM NDP-α-MSH 30 min
Protocol: Intracellular cyclic 3′-5′ adenosine monophosphate (cAMP) accumulation was measured using a competitive immunoassay based on HTRF (Homogeneous Time-Resolved Fluorescence) technology (cAMP dynamic-2, Cis-Bio).
HEK293T stable cell line expressing double-tagged WT-hMC4R construct were collected and washed in cAMP buffer (1XD-PBS pH 7.4, 0.1% glucose). 40,000 cells/well were then dispensed in 96-well plates in cAMP buffer [1XD-PBS, 1% BSA, 0.1% Glucose, 0.75 mM 3-isobutyl-1methyl-xanthine (IBMX, Sigma)] and incubated either for antagonist competition assay: 1 hour at 37° C. with various concentrations of compound [0.01 nM-10 μM] followed by 30 min incubation at 37° C. with 4 nM of NDP-α-MSH (Sigma) or for agonist assay: 1 hour at 37° C. with various concentrations of compound [0.01 nM-10 μM]. 10,000 cells were transferred in 384-well plates, lysed and incubated with cAMP labeled with the dye d2 and anti-cAMP M-Antibody labeled with Cryptate following the manufacturer's protocol.
Reading of HTRF signal was performed on Artemis TR-FRET plate reader (Cosmo Bio).
All curve fitting was conducted using non-linear regression analyses from PRISM (version 4.0c, GraphPad Inc.) and the determination of Rmax and EC50 or IC50 parameters were obtained from sigmoidal dose-response phase (variable slope) equation.
A cDNA encoding a wild-type human MC4R with a 3 tandem copies of Hemaglutinine (HA) epitote sequence from UMR cDNA resource center was modified using known techniques in the art (e.g., PCR, cloning) to fused in frame at the C-terminal a venus-Yellow Fluorescent Protein (YFP) cDNA.
The resultant cDNA was then subcloned in eukaryotic expression vector, e.g. pcDNA 3.1(+) (Invitrogen).
The double tagged WT-hMC4R was transfected in HEK293T cells with lipofectamine (Invitrogen) following the manufacturer's instructions and permanently transfected clonal cell lines were selected by resistance to the neomycin analog G418.
HEK293T stable cell line expressing wild-type human melanocortin 4 receptor (WT-hMC4R) containing an N-terminal 3xHA epitope tag and an intracellular C-terminal venus-yellow fluorescent protein (v-YFP) were maintained at 37° C. in humidified air containing 5% CO2 in Dulbecoo's modified Eagle's medium (DMEM) supplemented with 10% fetal bovine serum (FBS), 100 U/ml penicillin/streptomycin (DMEM complete/10% FBS). Cells were generally at 70%-80% confluence on the day of assay.

T1 sequence (P32245 whole entry): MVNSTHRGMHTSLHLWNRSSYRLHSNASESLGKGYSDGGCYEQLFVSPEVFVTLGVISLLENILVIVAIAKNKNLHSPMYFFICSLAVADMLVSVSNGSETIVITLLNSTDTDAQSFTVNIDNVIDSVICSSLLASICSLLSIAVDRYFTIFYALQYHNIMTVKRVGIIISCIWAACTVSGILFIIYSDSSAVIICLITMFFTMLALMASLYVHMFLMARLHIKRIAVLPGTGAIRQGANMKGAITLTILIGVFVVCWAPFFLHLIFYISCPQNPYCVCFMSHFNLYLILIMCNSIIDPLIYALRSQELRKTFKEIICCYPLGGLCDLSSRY

SMILES	IC50 [µM]
COc1ccc(-c2nn3ccc(C(=O)N(CCC4CC4)CCC4CC4)cc3c2/C=C/CN2CCCCC2)cc1 [Example 108]	1 to 5
COc1ccc(-c2nn3ccc(C(=O)N(CCC(C)C)CCC(C)C)cc3c2C#CCN2CCCCC2)cc1 [Example 109]	1 to 5
CCCCN(C/C=C/c1c(-c2ccc(OC)cc2)nn2ccc(C(=O)N(CCCC)CCCC)cc12)CCCC [Example 110]	5 to 15
COc1ccc(-c2nn3ccc(C(=O)N(CCC(C)C)CCC(C)C)cc3c2CCCN2CCCCCC2)cc1 [Example 111]	1 to 5
CCCCN(CCCC)CCCc1c(-c2ccc(OC)cc2)nn2ccc(C(=O)N(CCCC)CCCC)cc12 [Example 112]	1 to 5
COc1ccc(Cl)cc1-c1nn2ccc(C(=O)N(CCC(C)C)CCC(C)C)cc2c1/C=C/CN1CCCCC1 [Example 113]	1 to 5
COc1ccc(Cl)cc1-c1nn2ccc(C(=O)N(CCC(C)C)CCC(C)C)cc2c1CCCN1CCCCC1 [Example 114]	1 to 5
CC(=O)c1ccc(-c2nn3ccc(C(=O)N(CCC(C)C)CCC(C)C)cc3c2/C=C/CN2CCOCC2)cc1 [Example 115]	1 to 5
COc1ccc(Cl)cc1-c1nn2ccc(C(=O)N(CCC(C)C)CCC(C)C)cc2c1CCCN1CCCC1 [Example 116]	1 to 5
COc1ccc(NC(=O)c2nn3ccc(C(=O)N(CCC(C)C)CCC(C)C)cc3c2/C=C/CN2CCCCC2)cc1 [Example 117]	1 to 5
CC(C)CCN(CCC(C)C)C(=O)c1ccn2nc(-c3ccc(C(C)O)cc3)c(CCCN3CCOCC3)c2c1 (stereo not drawn) [Example 118]	1 to 5
CC(C)CCN(CCC(C)C)C(=O)c1ccn2nc(C(C)(C)C)c(CCCN3CCCCC3)c2c1 [Example 119]	< 0.5
CC(C)CCN(CCC(C)C)C(=O)c1ccn2nc(-c3ccc(C(=N)N)cc3)c(CCCN3CCCCC3)c2c1 [Example 120]	< 0.5
CC(=O)c1ccc(-c2nn3ccc(C(=O)N(CCC(C)C)CCC(C)C)cc3c2CCCN2CCOCC2)cc1 [Example 121]	1 to 5
CCOC(=O)c1ccc(NC(=O)c2nn3ccc(C(=O)N(CCC(C)C)CCC(C)C)cc3c2/C=C/CN2CCCCC2)cc1 [Example 122]	1 to 5
COc1ccc(-c2nn3ccc(C(=O)N(CCC(C)C)CCC(C)C)cc3c2/C=C/CN2CCOCC2)cc1 [Example 123]	1 to 5
COc1ccc(-c2nn3ccc(C(=O)N(CCC(C)C)CCC(C)C)cc3c2CCCN2CCOCC2)cc1 [Example 124]	< 0.5
CCOC(=O)c1ccc(NC(=O)c2nn3ccc(C(=O)N(CCC(C)C)CCC(C)C)cc3c2CCCN2CCCCC2)cc1 [Example 125]	1 to 5
CC(C)CCN(CCC(C)C)C(=N)c1ccn2nc(-c3ccc(C(N)=O)cc3)c(CCCN3CCCCC3)c2c1 [Example 126]	< 0.5

SMILES	IC50 [µM]
CC(C)CCN(CCC(C)C)C(=N)c1ccn2nc(-c3ccccc3)c(CCCN3CCCCC3)c2c1 [Example 127]	0.5 to 1
CC(C)CCN(CCC(C)C)C(=O)c1ccn2nc(C(C)(C)C)c(/C=C/CN3CCCCC3)c2c1 [Example 128]	1 to 5
COc1ccc(-c2nn3ccc(C(=O)N(CCC(C)C)CCC(C)C)cc3c2CCCN(C)C2CCNCC2)cc1 [Example 129]	0.5 to 1
COc1ccc(-c2nn3ccc(C(=O)N(CCC4CC4)CCC4CC4)cc3c2CCCN2CCCCC2)cc1 [Example 130]	0.5 to 1
COc1ccc(-c2nn3ccc(N(CCC(C)C)CCC(C)C)cc3c2CCCN2CCCCC2)cc1 [Example 131]	5 to 15
CC(C)CCN(CCC(C)C)C(=O)c1ccn2nc(Br)c(/C=C/CN3CCCCC3)c2c1 [Example 132]	1 to 5
CC(C)CCN(CCC(C)C)C(=O)c1ccn2nc(C(=O)Nc3ccc(C(=O)N4CCOCC4)cc3)c(CCCN3CCCCC3)c2c1 [Example 133]	5 to 15
CC(C)CCN(CCC(C)C)C(=O)c1ccn2nc(-c3ccc(-c4noc(-c5ccccc5)n4)cc3)c(CCCN3CCCCC3)c2c1 [Example 134]	1 to 5
Cc1nc(-c2ccc(-c3nn4ccc(C(=O)N(CCC(C)C)CCC(C)C)cc4c3CCCN3CCCCC3)cc2)no1 [Example 135]	< 0.5
CC(C)CCN(CCC(C)C)C(=O)c1ccn2nc(-c3ccc(-c4noc(C(F)(F)F)n4)cc3)c(CCCN3CCCCC3)c2c1 [Example 136]	1 to 5
COc1ccc(Cl)cc1-c1nn2ccc(C(=O)N(CCC(C)C)CCC(C)C)cc2c1-c1ccc(CN2CCCCC2)cc1 [Example 137]	1 to 5
COc1ccc(Nc2nn3ccc(C(=O)N(CCC(C)C)CCC(C)C)cc3c2/C=C/CN2CCCCC2)cc1 [Example 138, (E)-N,N-diisopentyl-2-((4-methoxphenyl)amino)-3-(3-(piperidin-1-yl)prop-1-en-1-yl)pyrazolo[1,5-a]pyridine-5-carboxamide]	< 0.5
CC(C)CCN(CCC(C)C)C(=O)c1ccn2nc(-c3ccc(-c4noc(-c5ccncc5)n4)cc3)c(CCCN3CCCCC3)c2c1 [Example 139]	< 0.5
CC(C)CCN(CCC(C)C)C(=O)c1ccn2nc(-c3ccc(-c4noc(Cc5ccc(F)cc5)n4)cc3)c(CCCN3CCCCC3)c2c1 [Example 140]	5 to 15
CC(C)CCN(CCC(C)C)C(=O)c1ccn2nc(C(=O)N3CCOCC3)c(CCCN3CCCCC3)c2c1 [Example 141, N,N-diisopentyl-2-(morpholine-4-carbonyl)-3-(3-(piperidin-1-yl)propyl)pyrazolo[1,5-a]pyridine-5-carboxamide]	5 to 15
COc1ccc(Nc2nn3ccc(C(=O)N(CCC(C)C)CCC(C)C)cc3c2CCCN2CCCCC2)cc1 [Example 142, N,N-diisopentyl-2-((4-methoxyphenyl)amino)-3-(3-(piperidin-1-yl)propyl)pyrazolo[1,5-a]pyridine-5-carboxamide]	< 0.5
CC(C)CCN(CCC(C)C)C(=S)c1ccn2nc(-c3ccccc3)c(CCCN3CCCCC3)c2c1 [Example 143]	1 to 5
CC(C)CCN(CCC(C)C)Cc1ccn2nc(-c3ccccc3)c(CCCN3CCCCC3)c2c1 [Example 144]	5 to 15
COc1ccc(-c2nn3ccc(C(=O)N(CCC(C)C)CCC(C)C)cc3c2/C=C/CN2CCC(C)CC2)cc1 [Example 145]	< 0.5

Other lines, results leading:

IC50 [µM]	SMILES
1 to 5	COc1ccc(-c2nn3ccc(C(=O)N(CCC(C)C)CCC(C)C)cc3c2CCCN2CCC(C)CC2)cc1 [Example 146]
5 to 15	CCOc1ccc(-c2nn3ccc(C(=O)N(CCC(C)C)CCC(C)C)cc3c2/C=C/CN2CCOCC2)cc1 [Example 147]
5 to 15	COc1ccc(-c2nn3ccc(C(=O)N(CCC(C)C)CCC(C)C)cc3c2CCN2CCCCC2)cc1 [Example 149, N,N-diisopentyl-2-(4-methoxyphenyl)-3-(2-(piperidin-1-yl)ethyl)pyrazolo[1,5-a]pyridine-5-carboxamide]
5 to 15	COc1ccc(-c2nn3ccc(C(=O)N(CCC(C)C)CCC(C)C)cc3c2/C=C/CNCc2ccccc2)cc1 [Example 150]
1 to 5	COc1ccccc1-c1nn2ccc(C(=O)N(CCC(C)C)CCC(C)C)cc2c1CCCN1CCCCC1 [Example 151]
0.5 to 1	COc1ccc(Nc2nn3ccc(C(=O)N(CCC(C)C)CCC(C)C)cc3c2C(=O)NCCN2CCCCC2)cc1 [Example 152]
5 to 15	CNC/C=C/c1c(-c2ccc(OC)cc2)nn2ccc(C(=O)N(CCC(C)C)CCC(C)C)cc12 [Example 153]
5 to 15	COc1ccc(-c2nn3ccc(C(=O)N(CCC(C)C)CCC(C)C)cc3c2CCCN)cc1 [Example 154]
1 to 5	COc1ccc(-c2nn3ccc(C(=O)N(CCC(C)C)CCC(C)C)cc3c2CCCNCc2ccccc2)cc1 [Example 155]
1 to 5	COc1ccc(-c2nn3ccc(C(=O)N(CCC(C)C)CCC(C)C)cc3c2CCCN2CCC2)cc1 [Example 156]
5 to 15	CNCCCc1c(-c2ccc(OC)cc2)nn2ccc(C(=O)N(CCC(C)C)CCC(C)C)cc12 [Example 157]
1 to 5	COc1ccc(-c2nn3ccc(C(=O)N(CCC(C)C)CCC(C)C)cc3c2/C=C/CN2CCCC(F)C2)cc1 (stereo not drawn) [Example 158]
0.5 to 1	COc1ccc(-c2nn3ccc(C(=O)N(CCC(C)C)CCC(C)C)cc3c2/C=C/CN2CCCOCC2)cc1 [Example 159]
1 to 5	COc1ccc(-c2nn3ccc(C(=O)N(CCC(C)C)CCC(C)C)cc3c2CCCN2[C@H](C)CCC[C@@H]2C)cc1 [Example 160]
1 to 5	COc1ccc(-c2nn3ccc(C(=O)N(CCC(C)C)CCC(C)C)cc3c2CCCN2CCCC(F)C2)cc1 (stereo not drawn) [Example 161]
0.5 to 1	COc1ccc(-c2nn3ccc(C(=O)N(CCC(C)C)CCC(C)C)cc3c2CCCN2CCCOCC2)cc1 [Example 162]
